From the NIST ThermoML archive (doi:10.1021/je900596d)
± gives the expanded uncertainty stated by the source.

Conditions: for mass density: Fluid (supercritical or subcritical phases), Vibrating tube method; for vapor or sublimation pressure: Liquid, Closed cell (Static) method

FC(F)=C(F)C(F)(F)F [hexafluoropropene]
Conditions | mass density [kg/m3]
358.16 K, 1948.8 kPa | 133.66 ± 0.2
358.16 K, 1982.5 kPa | 137.05 ± 0.21
358.16 K, 2016.7 kPa | 140.6 ± 0.22
358.16 K, 2051.6 kPa | 144.28 ± 0.22
358.16 K, 2085.7 kPa | 147.98 ± 0.23
358.16 K, 2118.7 kPa | 151.7 ± 0.24
358.16 K, 2152.9 kPa | 155.54 ± 0.25
358.16 K, 2185.6 kPa | 159.34 ± 0.26
358.16 K, 2250.5 kPa | 167.24 ± 0.27
358.16 K, 2283.4 kPa | 171.42 ± 0.28
358.16 K, 2316.3 kPa | 175.71 ± 0.29
358.16 K, 2349.2 kPa | 180.05 ± 0.3
358.16 K, 2381.8 kPa | 184.6 ± 0.31
358.16 K, 2414.3 kPa | 189.16 ± 0.33
358.16 K, 2462.8 kPa | 196.45 ± 0.35
358.16 K, 2529.2 kPa | 206.94 ± 0.37
358.16 K, 2562.6 kPa | 212.61 ± 0.39
358.16 K, 2581.2 kPa | 215.74 ± 0.41
358.16 K, 2616.7 kPa | 222.24 ± 0.43
358.16 K, 2635.2 kPa | 225.67 ± 0.45
358.16 K, 2669.9 kPa | 232.45 ± 0.47
358.16 K, 2703.7 kPa | 239.44 ± 0.5
358.16 K, 2738.3 kPa | 247.03 ± 0.54
358.16 K, 2771.6 kPa | 254.87 ± 0.58
358.16 K, 2806.3 kPa | 263.68 ± 0.62
358.16 K, 2839.2 kPa | 272.73 ± 0.7
358.16 K, 2872.4 kPa | 282.77 ± 0.77
358.16 K, 2905.9 kPa | 293.88 ± 0.8
358.16 K, 2939.1 kPa | 305.79 ± 1
358.16 K, 2972 kPa | 319.7 ± 1.2
358.16 K, 3000.1 kPa | 333.22 ± 1.5
358.16 K, 3003 kPa | 334.75 ± 1.6
358.16 K, 3005.7 kPa | 336.23 ± 1.6
358.16 K, 3008.2 kPa | 337.55 ± 1.6
358.16 K, 3010.9 kPa | 338.92 ± 1.7
358.16 K, 3013.2 kPa | 340.27 ± 1.7
358.16 K, 3015.5 kPa | 341.83 ± 1.7
358.16 K, 3017.6 kPa | 343.29 ± 1.7
358.16 K, 3019.8 kPa | 344.7 ± 1.8
358.16 K, 3022.4 kPa | 346.21 ± 1.9
358.16 K, 3025.8 kPa | 348.17 ± 2
358.16 K, 3027.8 kPa | 349.31 ± 2
358.16 K, 3031.6 kPa | 351.6 ± 2
358.16 K, 3035.5 kPa | 354.08 ± 1.1
358.16 K, 3037.5 kPa | 355.4 ± 0.95
358.16 K, 3041.3 kPa | 357.97 ± 1.1
358.16 K, 3045.1 kPa | 360.72 ± 0.98
358.16 K, 3047.1 kPa | 362.14 ± 0.96
358.16 K, 3050.9 kPa | 364.96 ± 0.95
358.16 K, 3054.3 kPa | 367.81 ± 0.93
358.16 K, 3057.8 kPa | 370.74 ± 1.1
358.16 K, 3061.2 kPa | 373.72 ± 2.1
358.16 K, 3064.5 kPa | 376.75 ± 2.1
358.16 K, 3067.7 kPa | 379.88 ± 2.2
358.16 K, 3071 kPa | 383.12 ± 2.2
358.16 K, 3074 kPa | 386.4 ± 2.2
358.16 K, 3077 kPa | 389.78 ± 2.3
362.9 K, 6.3 kPa | 0.34 ± 0.03
362.9 K, 8.4 kPa | 0.44 ± 0.03
362.9 K, 10.7 kPa | 0.55 ± 0.03
362.9 K, 15.1 kPa | 0.65 ± 0.03
362.9 K, 17.2 kPa | 0.88 ± 0.03
362.9 K, 20.8 kPa | 1.04 ± 0.03
362.9 K, 23 kPa | 1.15 ± 0.03
362.9 K, 25.2 kPa | 1.27 ± 0.03
362.9 K, 31.8 kPa | 1.53 ± 0.03
362.9 K, 34 kPa | 1.65 ± 0.03
362.9 K, 37.4 kPa | 1.78 ± 0.03
362.9 K, 40.2 kPa | 2 ± 0.03
362.9 K, 42.3 kPa | 2.22 ± 0.03
362.9 K, 47.8 kPa | 2.29 ± 0.03
362.9 K, 57.7 kPa | 2.87 ± 0.03
362.9 K, 64.3 kPa | 3.19 ± 0.03
362.9 K, 75.1 kPa | 3.75 ± 0.03
362.9 K, 81.7 kPa | 4.07 ± 0.03
362.9 K, 88 kPa | 4.26 ± 0.03
362.9 K, 96.7 kPa | 4.85 ± 0.03
362.9 K, 103.1 kPa | 5.2 ± 0.03
362.9 K, 109.4 kPa | 5.38 ± 0.03
362.9 K, 122.1 kPa | 6.16 ± 0.03
362.9 K, 128.4 kPa | 6.44 ± 0.03
362.9 K, 134.6 kPa | 6.83 ± 0.03
362.9 K, 140.8 kPa | 7.19 ± 0.03
362.9 K, 146.9 kPa | 7.41 ± 0.03
362.9 K, 153.1 kPa | 7.6 ± 0.03
362.9 K, 162.6 kPa | 8.2 ± 0.04
362.9 K, 172.6 kPa | 8.83 ± 0.04
362.9 K, 183.5 kPa | 9.3 ± 0.04
362.9 K, 191.9 kPa | 9.53 ± 0.04
362.9 K, 205.9 kPa | 10.23 ± 0.04
362.9 K, 217.1 kPa | 10.89 ± 0.04
362.9 K, 239.3 kPa | 12.29 ± 0.04
362.9 K, 250.5 kPa | 12.86 ± 0.04
362.9 K, 261.7 kPa | 13.26 ± 0.04
362.9 K, 272.8 kPa | 13.91 ± 0.04
362.9 K, 284 kPa | 14.66 ± 0.04
362.9 K, 294.9 kPa | 14.96 ± 0.04
362.9 K, 305.9 kPa | 15.65 ± 0.04
362.9 K, 322.3 kPa | 16.67 ± 0.04
362.9 K, 338.5 kPa | 17.36 ± 0.04
362.9 K, 354.9 kPa | 18.21 ± 0.04
362.9 K, 370.9 kPa | 19.21 ± 0.04
362.9 K, 386.8 kPa | 19.93 ± 0.04
362.9 K, 402.6 kPa | 20.85 ± 0.04
362.9 K, 418.2 kPa | 21.77 ± 0.04
362.9 K, 449.3 kPa | 23.6 ± 0.05
362.9 K, 485.1 kPa | 25.57 ± 0.05
362.9 K, 500.3 kPa | 26.4 ± 0.05
362.9 K, 520.6 kPa | 27.39 ± 0.05
362.9 K, 540.4 kPa | 28.38 ± 0.05
362.9 K, 560.3 kPa | 29.54 ± 0.05
362.9 K, 580 kPa | 30.72 ± 0.05
362.9 K, 599.7 kPa | 31.79 ± 0.06
362.9 K, 619.3 kPa | 32.97 ± 0.06
362.9 K, 638.8 kPa | 34.15 ± 0.06
362.9 K, 658.1 kPa | 35.19 ± 0.06
362.9 K, 677.4 kPa | 36.24 ± 0.06
362.9 K, 696.6 kPa | 37.68 ± 0.06
362.9 K, 715.6 kPa | 38.68 ± 0.06
362.9 K, 753.3 kPa | 40.79 ± 0.06
362.9 K, 772.1 kPa | 41.86 ± 0.07
362.9 K, 790.7 kPa | 43.17 ± 0.07
362.9 K, 809.2 kPa | 44.11 ± 0.07
362.9 K, 827.4 kPa | 45.36 ± 0.07
362.9 K, 845.6 kPa | 46.55 ± 0.07
362.9 K, 863.7 kPa | 47.41 ± 0.07
362.9 K, 881.6 kPa | 48.62 ± 0.08
362.9 K, 899.5 kPa | 49.68 ± 0.08
362.9 K, 917.1 kPa | 50.72 ± 0.08
362.9 K, 934.7 kPa | 52.13 ± 0.08
362.9 K, 952.2 kPa | 53.09 ± 0.08
362.9 K, 969.4 kPa | 54.03 ± 0.08

Conditions | vapor or sublimation pressure [kPa]
358.26 K | 3095.1 ± 5.5
358.76 K | 3128.1 ± 5.5
